# Settings: buffer; pH 7.4; 200.0 µM
row,Structure (SMILES),solubility kinetic [µg/mL]
1,Cc1cccc(C)c1NC(=O)N1CC=CCC1,> 34.5
2,Cc1ccnc(Nc2nc(-c3ccc(O)cc3)cs2)c1,3.9
3,CCOC(=O)c1c(C)[nH]c(-c2csc(C)n2)c1C,27.5
4,Cc1ccc(NC(=O)c2ccc3[nH]c(=O)c(=O)[nH]c3c2)nc1,8.7
5,O=C(NCc1ccncc1)C(=O)Nc1ccc2c(c1)OCO2,9.5
6,COc1ccc(NC(=O)CN2CCN(S(=O)(=O)N(C)C)CC2)cc1,> 53.5
7,O=C(CSc1nccc(-c2cccs2)n1)Nc1cccc(Cl)c1,2.2
8,Br.CCc1ccc(C2=CSC3=NCCN23)cc1,> 46.7
9,Cc1ccc(N2C(=O)N(CC(=O)Nc3ccc([N+](=O)[O-])cc3)C(=O)C2C)cc1 (stereo not given),6
10,Nc1c(C(=O)N2CCOCC2)oc2ccccc12,> 36.9
11,CC(=O)c1ccc(OC(C)C(=O)Nc2cccc(S(=O)(=O)NCc3ccco3)c2)cc1 (stereo not given),> 66.4
12,N#Cc1ccc(Oc2ncccn2)cc1,> 29.6
13,CCC(C)C(Nc1ncnc2scc(-c3ccccc3)c12)C(=O)O (stereo not given),> 51.2
14,O=C(Cc1ccccc1)NCC(=O)N/N=C/c1cccnc1,> 44.4
15,CC(=O)c1csc(COc2cc(Cl)cc(Cl)c2)n1,< 0.6
16,Cc1cc(C)nc(NC(=O)Cc2ccc(Br)cc2)n1,> 48
17,O=C1C[C@H](NC(=O)OCc2ccccc2)CO1,> 35.3
18,Cc1c(C)n(CCCN(C)C)c2ncnc(Nc3ccccc3)c12,> 48.5
19,O=C(NCc1ccccc1)N1CCCC1,> 30.6
20,COCc1c(C(=O)OCc2c(C)noc2C)oc2ccccc12,33.2
21,Br.C1=C(c2ccco2)N2CCN=C2S1,38.8
22,O=C(O)CSC(=S)N1CCCC1,26.7
23,CC(C)(C)Sc1ccc([N+](=O)[O-])cc1C(=O)Nc1ccncc1,> 49.7
24,O=C(COc1ncnc2cc(Cl)ccc12)c1ccccc1,3.2

row,Structure (SMILES),solubility kinetic [µg/mL]
1,O=C(O)c1ccccc1SCc1csc(-c2ccccc2)n1,> 49.1
2,Fc1cccc(Cc2noc(CN3CCSCC3)n2)c1,> 44
3,CC1CCN(C(=O)CSc2nc3ccccc3c(=O)[nH]2)CC1,> 47.6
4,Cc1ccc(CC(CC(=O)O)C(=O)Nc2ccc(Cl)cc2)cc1 (stereo not given),48.6
5,Cc1noc(C)c1C(=O)OCC(=O)Nc1ccc(C(N)=O)cc1,42.2
6,CC(C)Cn1c(N)c(C(=O)COC(=O)c2cc3ccccc3cc2O)c(=O)n(C)c1=O,4.5
7,NS(=O)(=O)c1ccc(CCNC(=O)CSCc2ccccc2)cc1,42.6
8,Cc1cc(C)c2cc(C(=O)N(C)C3CCN(C)CC3)[nH]c2c1,21
9,O=C(Nc1nc2ccccc2n1CCN1CCOCC1)c1ccccc1,51.4
10,COc1ccc(CCN2C(=S)N(c3ccccc3)C(=O)C2CC(=O)O)cc1OC (stereo not given),> 62.2
11,Cc1ccc(NC(=O)c2cnccn2)cc1C,31.7
12,CCn1c(SC)nc2cc(S(=O)(=O)N3CCCCC3)ccc21,43.6
13,CSCCC(=O)N1CCCC(CO)(CCCc2ccccc2)C1 (stereo not given),31.7
14,Cc1ccc(CNS(=O)(=O)c2c(C)[nH]c(=O)[nH]c2=O)cc1,> 46.4
15,Cl.c1ccc2c(c1)OCC(C1=NCCN1)O2 (stereo not given),> 36.1
16,COc1ccc(-c2cc(C(F)(F)F)nc(-n3ccnc3)n2)cc1,0.6
17,CCN(CC(=O)Nc1c(F)cccc1F)C(=O)CCCc1c[nH]c2ccccc12,7.4
18,O=C(O)c1ccccc1C(=O)Nc1ccccc1NC(=O)c1ccccc1C(=O)O,> 60.7
19,CC(=O)c1ccc(NC(=O)Nc2ccncc2)cc1,> 38.3
20,NNC(=O)CCN1CCN(Cc2ccccc2)CC1,> 39.4
21,CC(C)(C)NCC(O)COc1cccc2c1C[C@H](O)[C@H](O)C2 (stereo not given in full),> 46.4
22,CC1CN(C(=S)Nc2ccccc2)CC(C)O1 (stereo not given),35.4
23,O=C(c1cc(-c2ccccc2Cl)on1)N1CCCC1,> 41.5
24,Cc1cc(Nc2ccc([N+](=O)[O-])cc2)c2ccccc2n1,0.6

row,Structure (SMILES),solubility kinetic [µg/mL]
1,COc1cc(S(=O)(=O)N2CCN(C(=O)C3CC3)CC2)ccc1NC(C)=O,> 57.2
2,O=C1CC(/C=C/c2cccnc2)=Nc2ccccc2N1,24.4
3,O=[N+]([O-])c1cccc(CN2CCN(c3ncccn3)CC2)c1,32.2
4,CC1CCOC2(O1)C(=O)Nc1ccccc12 (stereo not given),24.4
5,Cc1ccc(NS(=O)(=O)c2cccc(C(=O)NC3CC3)c2)c(C)c1,5.8
6,CCOC(=O)NC(=S)Nc1ccc(C(C)(C)C)cc1,1.1
7,CC(NC(=O)Nc1ccc(F)cc1F)c1ccc2c(c1)OCO2 (stereo not given),2.4
8,O=c1ccc2cc(S(=O)(=O)NCCCc3ccccc3)ccc2[nH]1,1
9,N#Cc1cc([N+](=O)[O-])ccc1NC(=O)CSc1n[nH]c(=O)[nH]c1=O,> 52.2
10,Cc1cc(Nc2ccc(Br)cc2)nc2ccccc12,< 0.3
11,Cc1cc(NC(=O)COC(=O)CC2CCCC2)c([N+](=O)[O-])cc1C,3
12,O=C(NC(=S)N1CCc2ccccc21)C1CCC1,> 39.1
13,NS(=O)(=O)c1ccc(CCNC(=O)CN2C(=O)NC(c3ccccc3)(c3ccccc3)C2=O)cc1,> 73.9
14,CC(=O)Nc1ccc(C(=O)NCCN2CCOCC2)cc1,36
15,COc1ccc(Nc2nc(N)c(C(=O)c3ccc(OC)cc3)s2)cc1,1.4
16,O=C(NCCCNC(=O)c1cccnc1)c1ccc(Cl)cc1,43.3
17,C=CCN1C(=O)C2(OCCCO2)c2cccc(Cl)c21,15.1
18,CCC(=NCCc1ccccc1)c1c(O)n(C)c(=O)n(C)c1=O,42.3
19,N#Cc1c(-c2ccccc2)cc(-c2ccccc2)nc1SCC(=O)O,> 52
20,Cc1cc(O)cc(=O)n1Cc1ccccc1,> 32.3
21,O=C(Nc1cccc2ncccc12)c1cccc(Br)c1,16.2
22,S=c1nc[nH]c2nc[nH]c12,22.5
23,Cc1ccc(SCC(=O)NCc2ccccc2C)cc1,35.7
24,Oc1ccc2ccccc2c1CNc1ccc(Br)cc1,5.5

row,Structure (SMILES),solubility kinetic [µg/mL]
1,CC(C)c1ccc(N2C(=O)C3C4C=CC(CC4)C3C2=O)cc1 (stereo not given),2.7
2,Cc1cccc(Nc2ccc3nonc3c2[N+](=O)[O-])c1C,< 0.2
3,O=C(NC1CCOc2ccccc21)C1CCCC1 (stereo not given),> 36.8
4,CC1CCN(C(=O)COC(=O)c2ccc(Cl)nc2)CC1,> 44.5
5,Cc1ccc(C(=O)N/C(=C\c2ccco2)C(=O)N2CC(C)OC(C)C2)cc1C (stereo not given),> 57.4
6,CC(=O)c1c(C)[nH]c(C(=O)COC(=O)Cc2ccccc2F)c1C,> 49.7
7,CCN(C(=O)COc1nc(C)cc(C)c1C#N)c1ccccc1,9.3
8,O=C(c1ccc(-c2ccc(Cl)cc2Cl)o1)N1CCOCC1,4.2
9,CCCCNC(=O)C(=O)NCc1ccncc1,32.8
10,CCOC(=O)c1c(NC(=O)CN2CCN(C(=O)c3ccco3)CC2)sc(C(N)=O)c1C,5.6
11,Cc1c(Cl)cn2c(=O)cc(CN3CCN(c4ccc(F)cc4)CC3)nc2c1Cl,5
12,NC(=O)C1CCN(C(=O)Cc2ccc(-c3ccccc3)cc2)CC1,> 48.4
13,COc1ccc(CNC(=S)Nc2ccc(F)c(Cl)c2)cc1,1.8
14,CC1CN(CC(=O)Nc2ccc([N+](=O)[O-])cc2Br)CC(C)O1 (stereo not given),6.4
15,CCCn1c(=N)c(C#N)cc2c(=O)n3cccc(C)c3nc21,2.3
16,Cc1ccc(NC(=O)CN2CCN(Cc3ccccc3)CC2)cc1F,42.8
17,Cc1ccc2nc(NCc3ccccc3)c(C#N)cc2c1,2.8
18,COc1ccc(/C=C2\C(=O)ON=C2c2ccccc2)cc1OC,45.7
19,CCCS(=O)(=O)N1CCN=C1SCc1ccc(F)cc1,> 47.5
20,CCN1CCN(c2ccc(NC(=O)c3cnccn3)cc2)CC1,> 46.7
21,CN1CC(=O)N=C1N.Cl,> 22.4
22,Cc1oc(-c2ccc(Cl)cc2)cc1C(=O)NC1CCN(Cc2ccccc2)CC1,1
23,COC(=O)C1CN(C(=O)C(C)Oc2ccccc2F)c2ccccc2O1 (stereo not given),> 53.9
24,Nc1cc(C(F)(F)F)ccc1N1CCOCC1,36.7

row,Structure (SMILES),solubility kinetic [µg/mL]
1,COc1ccc(NC(=S)Nc2ccccc2)cc1,> 38.8
2,COc1ccc(-c2cc(C(=O)N3CCCC3)c3ccccc3n2)cc1OC,53.9
3,COC(=O)C(C)Nc1cccc(Br)c1 (stereo not given),21.8
4,Nc1nonc1C(=O)NCCNC(=O)c1ccc(Cl)cc1,> 46.5
5,Cn1c(=S)[nH]c2c(c1=O)C(C)(C)Cc1ccccc1-2,3
6,CC(C)CC1NC(=O)N(CC(=O)NC2CCCc3ccccc32)C1=O (stereo not given),45.7
7,Cc1ccc(CC(=O)NCCN2CCOCC2)cc1,> 39.4
8,Cn1c(-c2ccccc2)cnc1NCc1cc(Cl)ccc1O,1.2
9,CCOc1ccccc1NC(=O)C(=O)CC(=O)c1cccc(OC)c1,9.6
10,N#Cc1ccc2c(c1)nc1ccccn12,> 29
11,NS(=O)(=O)c1ccc(NC(=O)Nc2ccccc2)cc1,42.8
12,O=c1[nH]cnc2c1ncn2[C@@H]1C[C@@H](O)[C@H](CO)O1,> 37.8
13,Cc1cc(OCC(=O)N(C)Cc2ccccc2)cc(C)c1Cl,8.3
14,Cc1noc(C)c1COc1ccc(C(=O)Nc2ccccc2)cc1,0.8
15,COc1ccc(OC)c(N(CC(=O)Nc2cccc3ccccc23)S(C)(=O)=O)c1,43
16,Cc1cc(C)n(/C(=C/N(C)C)C(=O)c2ccccc2)n1,> 40.4
17,O=C(CSc1ccncc1)Nc1ccc2ccccc2c1,2.3
18,Fc1cccc(NC(=S)N2CCN(c3ccccn3)CC2)c1,5.6
19,CN(C)c1ccc(CNCc2cccnc2)cc1,33.3
20,O=C(CCNC(=O)c1ccccc1Cl)Nc1ccc(S(=O)(=O)Nc2nccs2)cc1,> 69.7
21,CC(C)(CC(=O)O)CC(=O)N1CCN(c2nc3cc(Cl)ccc3s2)CC1,> 59.4
22,Cc1cccc(OCCCn2c(=O)oc3ccc(C)cc32)c1,3.3
23,Cc1nccn1CC(O)COc1ccc([N+](=O)[O-])cc1 (stereo not given),> 41.6
24,Cc1cc(C)c(NC(=O)C2CCN(C(=O)c3ccco3)CC2)c(C)c1,44.2

# — PubChem BioAssay AID1996
